From patent US20190090476A1, “MICROEMULSIONS FOR AGRICULTURAL USE” (Florida Chemical Company, Inc., priority 2017, published 2019)
Where two headings read alike, the source gives them in different places.

How the values were obtained:
[1] = HSP distance Ra and relative energy difference RED of solvents versus plant wax HSP values; conditions: for RED 1: RED=Ra 1/Ro; for RED 1 / RED 2: Ro=7.1; for RED 2: RED=Ra 2/Ro
Source text: The HSP distance between two molecules, conventionally called Ra, is the measure of how alike they are. The smaller the Ra, the more likely they are to be compatible. A quantity called the relative energy difference (RED) may be used to measure relative distance:
where Ro is the radius of the sphere that contains all good solvents. […] Generally, a value of Ro=7.1 is typical. For RED<1, the molecules are alike and will dissolve. For RED=1, the system will partially dissolve. For RED>1, the system will not dissolve.
A solvent with similar HSP values to these, or a solvent for which Ra (calculated as shown above) is small, or for which RED is less than or equal to 1, would be expected to partially solvate and soften plant leaf cuticle waxes.

[2] = cited from earlier work; for δD: energy from dispersion forces; for δH: energy from hydrogen bonds; for δP: energy from polar intermolecular force
[3] = HSP distance to lower plant wax HSP values (δD=16.0-16.3, δP 0-2.5, δH=0-3.1)
[4] = HSP distance to upper plant wax HSP values (δD=16.0-16.3, δP 0-2.5, δH=0-3.1)

Ra 2 [1, 3] | Ra 1 [1, 4] | RED 1 [1] | RED 2 [1] | Compound | δD [2] | δH [2] | δP [2] | Ra 1 [1] | Ra 2 [1]
19.6 | 22.6 | 3.19 | 2.76 | O=C1OCCO1 [Ethylene Carbonate] | – | – | – | – | –
9.3 | 13.2 | 1.85 | 1.31 | CCCCOC(=O)CC(C)O (stereo not shown) [butyl-3-hydroxybutyrate] | 16.10 MPa^1/2 | 11.50 MPa^1/2 | 6.40 MPa^1/2 | – | –
9.6 | 13.3 | 1.88 | 1.35 | CCCCOCCO [Ethylene Glycol Monobutyl Ether] | 16 MPa^1/2 | 12.3 MPa^1/2 | 5.1 MPa^1/2 | – | –
4.4 | 7.8 | 1.10 | 0.62 | CC(=O)OCCC(C)C [Iso-Pentyl Acetate] | 15.3 MPa^1/2 | 7 MPa^1/2 | 3.1 MPa^1/2 | – | –
2.1 | 5.6 | 0.78 | 0.29 | CC12CCC(CC1)C(C)(C)O2 [eucalyptol] | 17 MPa^1/2 | 3.3 MPa^1/2 | 4 MPa^1/2 | – | –
2.4 | 5.9 | 0.83 | 0.34 | CCCCCCCCCCCC(=O)OC [methyl dodecanoate] | 16.54 MPa^1/2 | 5.43 MPa^1/2 | 2.06 MPa^1/2 | – | –
2.8 | 6.4 | 0.91 | 0.40 | CCCCCCCC(=O)OC [methyl octanoate] | 16.58 MPa^1/2 | 5.85 MPa^1/2 | 2.4 MPa^1/2 | – | –
4.0 | 1.6 | 0.23 | 0.56 | C1CCCCC1 [cyclohexane] | 16.8 MPa^1/2 | 0.2 MPa^1/2 | 0 MPa^1/2 | – | –
5.6 | 9.1 | 1.28 | 0.79 | CCCCOC(=O)c1ccccc1 [butyl benzoate] | 18.3 MPa^1/2 | 5.5 MPa^1/2 | 5.6 MPa^1/2 | – | –
3.0 | 6.7 | 0.94 | 0.42 | CCCCCCOC(C)=O [hexyl acetate] | 15.95 MPa^1/2 | 5.93 MPa^1/2 | 3.07 MPa^1/2 | – | –
4.4 | 1.3 | 0.19 | 0.62 | CCCCCCC [heptane] | 15.34 MPa^1/2 | 0 MPa^1/2 | 0 MPa^1/2 | – | –
8.1 | 10.8 | 1.52 | 1.14 | O=C(OCc1ccccc1)c1ccccc1 [Benzyl Benzoate] | 20 MPa^1/2 | 5.2 MPa^1/2 | 5.1 MPa^1/2 | – | –
1.9 | 5.9 | 0.83 | 0.27 | CCCCCCCC/C=C\CCCCCCCC(=O)OC [Methyl Oleate] | 16.2 MPa^1/2 | 4.5 MPa^1/2 | 3.8 MPa^1/2 | – | –
17.2 | 20.1 | 2.83 | 2.42 | CC1COC(=O)O1 (stereo not shown) [Propylene Carbonate] | 20 MPa^1/2 | 4.1 MPa^1/2 | 18 MPa^1/2 | – | –
2.3 | 5.2 | 0.74 | 0.32 | C=C(C)[C@H]1CC=C(C)CC1 [d-limonene] | 17.2 MPa^1/2 | 4.3 MPa^1/2 | 1.8 MPa^1/2 | – | –
3.8 | 7.5 | 1.06 | 0.54 | C=CC(C)(O)CCC=C(C)C (stereo not shown) [linalool] | 16.5 MPa^1/2 | 6.9 MPa^1/2 | 2.8 MPa^1/2 | – | –
8.4 | 12.1 | 1.71 | 1.18 | CC1=CC[C@@H](C(C)(C)O)CC1 [alpha terpineol] | 16.1 MPa^1/2 | 11.2 MPa^1/2 | 4.6 MPa^1/2 | – | –
9.3 | 13.0 | 1.83 | 1.31 | CCCCCCCO [heptanol] | 16.57 MPa^1/2 | 12.27 MPa^1/2 | 4.09 MPa^1/2 | – | –
3.2 | 1.1 | 0.16 | 0.45 | Dimethyl Cyclohexane | 16.1 MPa^1/2 | 1.1 MPa^1/2 | 0 MPa^1/2 | – | –

Compound | Ra 2 [1, 3] | Ra 1 [1, 4] | RED 1 [1] | RED 2 [1] | δD [2] | δH [2] | δP [2] | Ra 1 [1] | Ra 2 [1]
OC1CCCCC1 [cyclohexanol] | 10.7 | 14.4 | 2.03 | 1.51 | 17.4 MPa^1/2 | 13.5 MPa^1/2 | 4.1 MPa^1/2 | – | –
Cc1cccc(O)c1 [m-Cresol] | 12.2 | 16.0 | 2.25 | 1.71 | 18.5 MPa^1/2 | 13.7 MPa^1/2 | 6.5 MPa^1/2 | – | –
CCCCOC(=O)CC [n-Butyl Propionate] | – | – | 1.14 | 0.60 | 15.7 MPa^1/2 | 5.9 MPa^1/2 | 5.5 MPa^1/2 | 8.1 | 4.3
CC1=CC(=O)CC(C)(C)C1 [isophorone] | 7.2 | 11.1 | 1.56 | 1.01 | 16.6 MPa^1/2 | 7.4 MPa^1/2 | 8.2 MPa^1/2 | – | –
CCCCOC(C)=O [n-Butyl Acetate] | 3.6 | 7.3 | 1.03 | 0.50 | 15.8 MPa^1/2 | 6.3 MPa^1/2 | 3.7 MPa^1/2 | – | –
CC1CCCCC1 [Methyl Cyclohexane] | – | – | 0.14 | 0.47 | 16 MPa^1/2 | 1 MPa^1/2 | 0 MPa^1/2 | 1.0 | 3.3
CC1=CC=C(C(C)C)CC1 [alpha terpinene] | 2.1 | 4.7 | 0.67 | 0.30 | 16.2 MPa^1/2 | 4.6 MPa^1/2 | 1 MPa^1/2 | – | –
CC(=O)OC(C)(C)C [t-Butyl Acetate] | 4.1 | 7.3 | 1.03 | 0.57 | 15 MPa^1/2 | 6 MPa^1/2 | 3.7 MPa^1/2 | – | –
CC(C)(C)O [t-Butyl Alcohol] | 12.1 | 15.6 | 2.20 | 1.70 | 15.2 MPa^1/2 | 14.7 MPa^1/2 | 5.1 MPa^1/2 | – | –
